{"source": "patent EP1944295A1", "about": "“Non-racemic mixtures of (R)-N-piperidinyl-5-(4-chlorophenyl)1-(2,4-dichlorophenyl)-4,5-dihydro-1H-pyrazole-3-carboxamide and (S)-N-piperidinyl-5-(4-chlorophenyl)-1-(2,4-dichlorophenyl)-4,5-dihydro-1H-pyrazole-3-carboxamide” (Laboratorios del Dr. Esteve S.A., priority 2007, dated 2008)", "key": {"[1]": {"test": "Plasma glycerol and triacylglycerol assay", "assay_type": "in vivo, female Wistar rats", "conditions": "obese rats, vs vehicle; for reduction of plasma glycerol levels / reduction of plasma triacylglycerol concentrations: 30 mg/kg po once daily for 28 days", "protocol": "(§1) The experiment was performed on female Wistar rats (originally in the weight range 250-300 g). The rats were housed in pairs in polypropylene cages with solid floors and sawdust bedding at a temperature of 21±4°C and 55±20% humidity. Animals were maintained on a reverse phase light-dark cycle (lights off for 8 h from 09.30-17.30 h) during which time the room was illuminated by red light. Animals had free access to powdered high fat diet (VRF1 plus 20% lard), ground chocolate, ground peanuts and tap water at all times. The three different diets were contained in separate glass feeding jars with aluminum lids with a 3-4 cm hole cut in it to allow access to the food. Animals were housed in pairs for twelve weeks for the induction of obesity. Animals were then housed singly in polypropylene cages with wire grid floors to enable the food intake of each rat to be recorded. Polypropylene trays with cage pads were placed beneath each cage to detect any food spillage. Animals were accustomed to these new conditions (individual housing and the wire-grid floor cages) for at least 14 days before the start of the baseline readings.\n(§2) Approximately a week before the start of the study, animals were weighed (to the nearest 0.1 g using an electronic top-pan balance) and allocated into […], each containing 9-10 animals. Following a 7 day baseline run-in period, during which the animals were dosed by the appropriate route (eg orally) once a day with vehicle (0.5% hydroxy-propyl-methylcellulose [HPMC]; 1 ml/kg) or the test drug, ie COMPOUND A (10 and 30 mg/kg po) and COMPOUND B (10 and 30 mg/kg po) once daily for 28 days.\nTerminal blood samples via cardiac puncture were taken from the animals immediately after death into Sarstedt 4.5 ml lithium-heparin tubes (Cat No. 32.331). Tubes were then centrifuged at 1,500 g for 5 minutes at 4°C and the plasma removed and immediately frozen on dry ice (as 3 aliquots per sample in sealed Eppendorf tubes). Plasma samples were stored at -75°C until required for analysis. All determinations were performed on plasma samples that had been thawed only once.\nPlasma triacylglycerol was determined by modification of a discrete assay kit (Sigma Triglyceride determination kit, Cat No. TR0100) to a 96-well format. The kit actually determines liberated glycerol following enzymic hydrolysis of triacylglycerol to free fatty acids and glycerol (1 mole glycerol per mole of triacylglycerol). For this reason, correction for the glycerol concentration originally present in the plasma is required. Plasma samples were, therefore, assayed in the absence (free plasma glycerol) or presence (total triacylglycerol) of lipoprotein lipase. Subtraction of free glycerol from total triacylglycerol concentration then derives the true triacylglycerol concentration.\nA 2.5 mg/ml triolein equivalent glycerol standard was obtained from Sigma. The supplied Sigma mM conversion factor for this batch was 1.13 (ie 2.83 mM glycerol). A 10 mg/ml glycerol stock solution was prepared in saline and then diluted in saline to create a series of standard concentrations from 0.218 to 4.34 mM. Standards and plasma samples (undiluted) were pipetted into the 96-well plates as 10 µl additions in duplicate. Assay plates and reagents were preheated at 37°C and the reaction started by adding 200 µl of either the glycerol or total triacylglycerol reagent (reconstituted as per manufacturer's protocol) followed by incubation at 37°C for 5 minutes after which optical density at 540 nm was determined using a Molecular Devices VERSAmax tunable microplate reader. Optical density readings were then transferred to GraphPad Prism and unknown values extrapolated from a linear regression fit to the standard curve. The assay was linear up to the highest glycerol standard employed (4.34 mM). Subtraction of the glycerol concentration in the plasma samples from the total triacylglycerol concentration derived the true triacylglycerol concentration."}, "rat CB1 receptors": {"biological_target": "T1, rat CB1 receptors (Rattus norvegicus, UniProt P20272)", "T1 construct": "cerebella from male Wistar rats (250-300g) were carefully dissected on ice and homogenates were prepared; from tissue; host or cells: rat cerebellum membranes (male Wistar rats)", "T1 sequence (P20272 whole entry)": "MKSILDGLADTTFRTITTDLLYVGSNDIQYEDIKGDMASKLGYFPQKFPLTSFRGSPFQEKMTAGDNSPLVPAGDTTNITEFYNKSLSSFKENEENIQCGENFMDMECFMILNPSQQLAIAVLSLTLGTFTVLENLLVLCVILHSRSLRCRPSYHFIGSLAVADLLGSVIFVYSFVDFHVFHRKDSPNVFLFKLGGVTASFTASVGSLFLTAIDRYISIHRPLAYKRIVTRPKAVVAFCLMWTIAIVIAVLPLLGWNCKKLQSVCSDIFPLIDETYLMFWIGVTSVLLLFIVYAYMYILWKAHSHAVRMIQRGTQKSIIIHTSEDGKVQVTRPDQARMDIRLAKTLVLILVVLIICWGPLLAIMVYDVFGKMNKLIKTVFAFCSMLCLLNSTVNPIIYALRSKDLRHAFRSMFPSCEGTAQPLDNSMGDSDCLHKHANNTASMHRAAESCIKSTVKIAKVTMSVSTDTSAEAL", "test": "Binding affinity to CB1 receptor, competitive binding with [3H]-CP 55,940 in rat cerebellum membranes", "protocol": "Binding affinity to CB1 receptor was evaluated according to the method of Govaerts et al (2004) with the following modifications. Briefly, cerebella from male Wistar rats (250-300g) were carefully dissected on ice and homogenates were prepared in cold 50 mM Tris-HCl, 5 mM MgCl2, 1 mM EDTA, 0.25 M sucrose, pH 7.4 with a Potter-Heljheim homogeniser and the suspension was centrifuged at 1,000 x g for 5 minutes. The supernatants were collected and centrifuged at 50,000 x g for 15 min. The resulting pellets were resuspended in Tris-HCl buffer without sucrose, homogenized and incubated for 15 min at 37°C in an orbital shaker bath and centrifuged again at 50,000 x g for 15 min. Pellets were weighed, resuspended in Tris-HCl buffer without sucrose, homogenized with an Ultraturrax homogeniser at 13,500 rpm for 3 x 5 seconds and aliquoted in 0.9 ml volumes in Eppendorf tubes. Aliquots were centrifuged at 20,800 x g for 5 minutes, supernatants discarded and pellets were frozen at -80°C until use. Total protein concentration was determined using a Bio-Rad commercial assay base on the Lowry method. Competitive binding experiments were performed in presence of 1 nM [^3H]-CP 55,940 in siliconized glass tubes containing 100 µg protein/tube resuspended in 1 ml final volume of 50 mM Tris-HCl, 5 mM MgCl2, 1 mM EDTA, 0.5% (w/v) bovine serum albumin, pH 7.4. Competitors were present at various concentrations and the non-specific binding was determined in the presence of 10 µM HU-210. After 1 hour incubation at 30°C, the suspension was rapidly filtered through 0.5% PEI pre-treated GF/B fiber filters on a 96-well harvester and washed 3 times with 3ml ice-cold binding buffer without bovine serum albumin. Radioactivity on filters was measured with Wallac Winspectral 1414 counter by liquid scintillation in 6 ml Ecoscint H (National Diagnostics, U.K.). Assays were made in triplicate.\nBinding data were analyzed by non-linear regression with the software GraphPad Prism Version 3.03."}, "Herg channel": {"biological_target": "Herg channel (Homo sapiens, UniProt Q12809)", "sequence (Q12809 whole entry)": "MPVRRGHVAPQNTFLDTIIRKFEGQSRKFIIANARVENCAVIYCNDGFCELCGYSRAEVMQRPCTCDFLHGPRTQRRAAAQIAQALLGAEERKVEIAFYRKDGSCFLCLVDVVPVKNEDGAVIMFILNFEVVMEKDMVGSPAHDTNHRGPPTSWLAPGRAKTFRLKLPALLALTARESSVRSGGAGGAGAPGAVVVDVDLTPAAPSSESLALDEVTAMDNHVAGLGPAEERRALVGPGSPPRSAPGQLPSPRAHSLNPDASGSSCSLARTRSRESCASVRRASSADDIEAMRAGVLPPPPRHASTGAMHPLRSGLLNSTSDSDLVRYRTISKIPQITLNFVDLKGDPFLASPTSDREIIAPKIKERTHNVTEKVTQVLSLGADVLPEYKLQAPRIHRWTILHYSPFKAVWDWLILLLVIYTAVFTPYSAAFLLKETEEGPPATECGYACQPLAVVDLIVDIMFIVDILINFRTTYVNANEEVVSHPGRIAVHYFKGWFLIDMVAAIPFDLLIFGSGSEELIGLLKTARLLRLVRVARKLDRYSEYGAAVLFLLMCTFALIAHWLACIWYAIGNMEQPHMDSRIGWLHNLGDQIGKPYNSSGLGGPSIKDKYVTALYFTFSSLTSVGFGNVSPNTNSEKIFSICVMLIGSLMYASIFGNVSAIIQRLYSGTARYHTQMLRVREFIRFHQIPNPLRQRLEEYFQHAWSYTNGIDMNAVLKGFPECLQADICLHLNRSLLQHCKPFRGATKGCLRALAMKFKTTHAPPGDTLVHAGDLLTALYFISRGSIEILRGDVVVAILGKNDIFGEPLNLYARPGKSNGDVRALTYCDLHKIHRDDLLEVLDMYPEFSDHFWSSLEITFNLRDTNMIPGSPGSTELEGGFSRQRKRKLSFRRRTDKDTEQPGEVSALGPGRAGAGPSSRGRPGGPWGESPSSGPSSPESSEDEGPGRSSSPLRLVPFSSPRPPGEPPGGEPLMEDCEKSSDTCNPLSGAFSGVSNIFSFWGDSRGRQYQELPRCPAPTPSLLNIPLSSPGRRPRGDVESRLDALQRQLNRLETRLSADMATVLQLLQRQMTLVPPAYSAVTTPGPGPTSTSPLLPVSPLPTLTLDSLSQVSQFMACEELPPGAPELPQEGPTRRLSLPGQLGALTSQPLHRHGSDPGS", "test": "Herg channel affinity (statement only, no method)", "assay_type": "binding", "conditions": "low risk of prolongation of the QT-interval expected"}, "[2]": {"test": "Feeding study: body weight of obese rats with access to highly palatable cafeteria diet", "assay_type": "in vivo, female Wistar rats", "conditions": "after 28 days of treatment, dietary-induced obese rats", "protocol": "as §1, §2\nFood intake and body weight were measured once daily. Variations in body weight and energy levels of the different types of food were accounted for by expressing the food intake results in terms of kJ/kg rat weight.\nStatistical comparisons between the body weights and daily food intakes of the different treatment groups have been made by analysis of covariance followed by Dunnett's test to compare each treatment group with the vehicle-treated controls. For the body weight data (body weights each day), the weights of the animals on Day 1 (ie immediately before the first drug treatment) were used as the covariate. Thus, means were adjusted for differences in body weight between the groups on Day 1 and standard errors of the mean (SEM) were calculated from the residuals of the statistical model. All mean body weight values on Day 1 are identical (and SEM are therefore zero) because the analysis of covariance adjusts them all to equal the 'grand mean' of the values of this day."}, "[3]": {"test": "Determination of carcass fat content (Soxhlet)", "assay_type": "in vivo, female Wistar rats", "conditions": "obese rats, g per rat", "protocol": "as §1, with “Polypropylene trays with cage pads were placed beneath each cage to detect any food spillage.” left out, “readings. […]” for “readings.”\nPercentage fat in the freeze-dried sample was calculated as follows: % fat = [100×(final cup weight-initial cup weight)]/sample weight [formula]\nPercentage fat in the original sample was calculated using the % water as follows: % fat in original sample = % fat × [(100-% water)/100] […]"}, "Plasma leptin assay": {"test": "Plasma leptin assay", "assay_type": "in vivo, female Wistar rats", "conditions": "obese rats", "protocol": "as §1, with “Polypropylene trays with cage pads were placed beneath each cage to detect any food spillage.” left out, “readings. […]” for “readings.”\nPlasma leptin concentration was determined using Assay Designs rat leptin enzyme immunometric assay kits (Cat No. 900-015) according to the manufacturer's regular protocol. […] Optical density at 450 nm was determined using a Molecular Devices VERSAmax tunable microplate reader and readings transferred to GraphPad Prism. […]"}, "Plasma NEFA assay": {"test": "Plasma NEFA assay", "assay_type": "in vivo, female Wistar rats", "conditions": "30 mg/kg po once daily for 28 days, obese rats", "protocol": "as §1, with “Animals were housed in pairs for twelve weeks for the induction of obesity.” left out, “Polypropylene trays with cage pads were placed beneath each cage to detect any food spillage.” left out, “readings. […]” for “readings.”\nNon-esterified (or free) fatty acids (NEFA) were determined by modification of a commercial clinical analyser assay kit (Wako NEFA C ACS-ACOD method) to a 96-well format. […] After exactly 10 minutes, 150 µl of reagent B was added and the plate incubated for a further 10 minutes after which optical density at 540 nm was determined using a Molecular Devices VERSAmax tunable microplate reader. […]"}, "[4]": {"conditions": "10 mg/kg po once daily for 28 days"}, "[5]": {"conditions": "1 nM [3H]-CP 55,940, read-out: IC50"}, "[6]": {"conditions": "30 mg/kg po once daily for 28 days"}}, "note": "Like-named read-outs stand apart in the source and are kept apart here."}
{"smiles": "O=C(NN1CCCCC1)C1=NN(c2ccc(Cl)cc2Cl)[C@@H](c2ccc(Cl)cc2)C1", "note": "[Compound A, (R)-N-piperidinyl-5-(4-chlorophenyl)-1-(2,4-dichlorophenyl)-4,5-dihydro-1H-pyrazole-3-carboxamide]", "values": [{"measurement": "effect on plasma glycerol levels", "setting": "[1]; [4]", "result": "no significant effect"}, {"measurement": "effect on plasma triacylglycerol concentrations", "setting": "[1]; [4]", "result": "no significant effect"}, {"measurement": "reduction of plasma glycerol levels", "setting": "[1]", "result": 33.6, "unit": "%"}, {"measurement": "reduction of plasma triacylglycerol concentrations", "setting": "[1]", "result": 42, "unit": "%"}, {"measurement": "IC50", "setting": "rat CB1 receptors; [5]", "result": 16.1, "unit": "nM"}, {"measurement": "IC50", "setting": "rat CB1 receptors; 1 nM [3H]-CP 55,940, read-out: pIC50 (converted)", "result": 21.9, "unit": "nM"}, {"measurement": "Herg channel affinity", "setting": "Herg channel", "result": "relatively weak"}, {"measurement": "% reduction of body weight compared to the control group on Day 29", "setting": "[2]; 10 mg/kg po once daily", "result": 12.0, "unit": "%"}, {"measurement": "% reduction of body weight compared to the control group on Day 29", "setting": "[2]; 30 mg/kg po once daily", "result": 19.0, "unit": "%"}]}
{"smiles": "O=C(NN1CCCCC1)C1=NN(c2ccc(Cl)cc2Cl)[C@H](c2ccc(Cl)cc2)C1", "note": "[Compound B, (S)-N-piperidinyl-5-(4-chlorophenyl)-1-(2,4-dichlorophenyl)-4,5-dihydro-1H-pyrazole-3-carboxamide]", "values": [{"measurement": "decrease in absolute body fat compared to the vehicle-treated control group", "setting": "[3]; [4]", "result": 26.2, "unit": "g"}, {"measurement": "decrease in absolute body fat compared to the vehicle-treated control group", "setting": "[3]; [6]", "result": 11.1, "unit": "g"}, {"measurement": "reduction of plasma glycerol levels", "setting": "[1]", "result": 38.9, "unit": "%"}, {"measurement": "reduction of plasma triacylglycerol concentrations", "setting": "[1]", "result": 52.1, "unit": "%"}, {"measurement": "IC50", "setting": "rat CB1 receptors; [5]", "result": 813, "unit": "nM"}, {"measurement": "decrease of plasma leptin levels compared to the vehicle-treated control group", "setting": "Plasma leptin assay; [4]", "result": 13.7, "unit": "%"}, {"measurement": "decrease of plasma leptin levels compared to the vehicle-treated control group", "setting": "Plasma leptin assay; [6]", "result": 26.2, "unit": "%"}, {"measurement": "% reduction of body weight compared to the control group on Day 29", "setting": "[2]; 10 mg/kg po once daily", "result": 4.0, "unit": "%"}, {"measurement": "% reduction of body weight compared to the control group on Day 29", "setting": "[2]; 30 mg/kg po once daily", "result": 7.1, "unit": "%"}, {"measurement": "decrease of plasma NEFA levels compared to the vehicle-treated control group", "setting": "Plasma NEFA assay", "result": 24.4, "unit": "%"}]}
